{"source": "patent US20230355622A1", "about": "“METHODS OF CHEMOVACCINATION AGAINST PLASMODIUM INFECTIONS” (Merck Sharp & Dohme LLC, priority 2020, published 2023)", "note": "pEC50: −log10 of the molar value."}
{"test_system": "parasite", "assay": "Parasite LDH growth assay (Parasite Assay), antiparasite potency", "type": "cell-based", "conditions": "72 h, parasite LDH growth assay, ring stage parasites, 72 hours incubation at 37° C.; read-out: EC50", "protocol": "(§1) Assessing Antiparasite Potency in a Parasite LDH Growth Assay (Parasite Assay)\n(§2) The parasite stock was maintained at 4% haematocrit in RPMI-Hepes media buffered with sodium bicarbonate and supplemented with 5% heat inactivated human serum and 0.5% albumax.\n(§3) On the day of assay set up, a blood smear of the parasite culture was Giemsa stained and counted. The parasitemia was adjusted to 0.7% rings and the haematocrit was diluted to 2% in RPMI-Hepes media buffered with sodium bicarbonate and supplemented with 5% heat inactivated human serum and 0.5% albumax. 30 ul of diluted parasites are then added into 10 ul of media+compound in pre-prepared Greiner TC assay plates. Parasite assay plates were placed in gassed humidified boxes in single layer and allowed to incubate at 37° C. for 72 hours. After 72 hours growth, assay plates are sealed with parafilm and frozen flat, in single file at −80° C. overnight. On the following day, assay plates are allowed to thaw at room temperature for 4 hours to which an LDH assay is performed to measure parasite growth."}
{"smiles": "CC(C)[C@]1(C)CC(=O)N([C@@H]2CCOc3ccc(C(=O)NC4c5ccccc5OC(C)(C)C4O)cc32)C(=N)N1", "note": "(single isomer, unassigned) [Example 11A]", "pEC50": 9.05}
{"smiles": "CCC1C[C@@H](N2C(=N)NC(CC)(CC)CC2=O)c2cc(C(=O)NC3c4ccccc4OC(C)(C)C3O)ccc2O1", "note": "(single isomer, unassigned) [Example 13A]", "pEC50": 9.10}
{"smiles": "CCC1C[C@@H](N2C(=N)NC(CC)(CC)CC2=O)c2cc(C(=O)NC3c4ccccc4OC(C)(C)C3O)ccc2O1", "note": "(single isomer, unassigned) [Example 13B]", "pEC50": 7.27}
{"smiles": "CCC1(CC)CC(=O)N([C@@H]2CCOc3ccc(C(=O)NC4c5cc(F)ccc5C[C@H]4O)cc32)C(=N)N1", "note": "(stereo in doubt) [Example 148, (4R)-4-(4,4-diethyl-2-imino-6-oxo-hexahydropyrimidin-1-yl)-N-[(1R,2R)-6-fluoro-2-hydroxy-indan-1-yl]chromane-6-carboxamide]", "pEC50": 8.57}
{"smiles": "CCC1(CC)CC(=O)N(C2CCOc3ccc(C(=O)N[C@@H]4c5ccccc5OC(C)(C)[C@H]4O)cc32)C(=N)N1", "note": "(stereo partly drawn) [Example 2A, 4-(4,4-diethyl-2-imino-6-oxotetrahydropyrimidin-1(2H)-yl)-N-((3S,4R)-3-hydroxy-2,2-dimethylchroman-4-yl)chroman-6-carboxamide]", "pEC50": 9.30}
{"smiles": "CCC1(CC)CC(=O)N([C@@H]2CCOc3ccc(C(=O)N[C@H]4CC(C)(C)Oc5ccc(F)cc54)cc32)C(=N)N1", "note": "[Example 7A, (R)-4-(4,4-diethyl-2-imino-6-oxotetrahydropyrimidin-1(2H)-yl)-N-((S)-6-fluoro-2,2-dimethylchroman-4-yl)chromane-6-carboxamide]", "pEC50": 9.40}
{"smiles": "CC(C)[C@]1(C)CC(=O)N([C@@H]2CCOc3ccc(C(=O)N[C@H]4CC(C)(C)Oc5ccccc54)cc32)C(=N)N1", "note": "[Example 10A, (R)-N-((S)-2,2-dimethylchroman-4-yl)-4-((S)-2-imino-4-isopropyl-4-methyl-6-oxotetrahydropyrimidin-1(2H)-yl)chromane-6-carboxamide]", "pEC50": 9.30}
{"smiles": "CCC1(CC)CC(=O)N([C@@H]2CCOc3ccc(C(=O)N[C@H]4CC(C)(C)Oc5ccc(Br)cc54)cc32)C(=N)N1", "note": "[Example 14A, (R)-N-((S)-6-bromo-2,2-dimethylchroman-4-yl)-4-(4,4-diethyl-2-imino-6-oxotetrahydropyrimidin-1(2H)-yl)chromane-6-carboxamide]", "pEC50": 9.00}
{"smiles": "CCC1(CC)CC(=O)N([C@@H]2CCOc3ccc(C(=O)N[C@@H]4c5cc(Br)ccc5OC(C)(C)[C@H]4O)cc32)C(=N)N1", "note": "[Example 15A, (R)-N-((3S,4R)-6-bromo-3-hydroxy-2,2-dimethylchroman-4-yl)-4-(4,4-diethyl-2-imino-6-oxotetrahydropyrimidin-1(2H)-yl)chromane-6-carboxamide]", "pEC50": 9.52}
{"smiles": "CCC1(CC)CC(=O)N([C@@H]2CC(COC)Oc3ccc(C(=O)N[C@@H]4c5ccccc5OC(C)(C)[C@H]4O)cc32)C(=N)N1", "note": "(stereo partly drawn) [Example 18A, (4R)-4-(4,4-diethyl-2-imino-6-oxotetrahydropyrimidin-1(2H)-yl)-N-((3S,4R)-3-hydroxy-2,2-dimethylchroman-4-yl)-2-(methoxymethyl)chromane-6-carboxamide]", "pEC50": 9.10}
{"smiles": "CCC1(CC)CC(=O)N([C@@H]2CCOc3ccc(C(=O)N[C@@H]4c5cc(Cl)ccc5OC(C)(C)[C@H]4O)cc32)C(=N)N1", "note": "[Example 19A, (R)-N-((3S,4R)-6-chloro-3-hydroxy-2,2-dimethylchroman-4-yl)-4-(4,4-diethyl-2-imino-6-oxotetrahydropyrimidin-1(2H)-yl)chromane-6-carboxamide]", "pEC50": 9.52}
{"smiles": "CCC1(CC)CC(=O)N([C@@H]2CCOc3ccc(C(=O)N[C@@H]4c5cc(C#N)ccc5OC(C)(C)[C@H]4O)cc32)C(=N)N1", "note": "[Example 20A, (R)-N-((3S,4R)-6-cyano-3-hydroxy-2,2-dimethylchroman-4-yl)-4-(4,4-diethyl-2-imino-6-oxotetrahydropyrimidin-1(2H)-yl)chromane-6-carboxamide]", "pEC50": 9.10}
{"smiles": "CCC1(CC)CC(=O)N([C@@H]2CCOc3ccc(C(=O)N[C@H]4CC(C)(C)Oc5ccc(C#N)cc54)cc32)C(=N)N1", "note": "[Example 21A, (R)-N-((S)-6-cyano-2,2-dimethylchroman-4-yl)-4-(4,4-diethyl-2-imino-6-oxotetrahydropyrimidin-1(2H)-yl)chromane-6-carboxamide]", "pEC50": 9.10}
{"smiles": "CCC1(CC)CC(=O)N([C@@H]2CC3(COC3)Oc3ccc(C(=O)N[C@H]4CC(C)(C)Oc5ccccc54)cc32)C(=N)N1", "note": "[Example 22A, (R)-4-(4,4-diethyl-2-imino-6-oxotetrahydropyrimidin-1(2H)-yl)-N-((S)-2,2-dimethylchroman-4-yl)spiro[chromane-2,3′-oxetane]-6-carboxamide]", "pEC50": 9.15}
{"smiles": "CCC1(CC)CC(=O)N([C@@H]2CC3(COC3)Oc3ccc(C(=O)N[C@@H]4c5ccccc5C[C@H]4O)cc32)C(=N)N1", "note": "[Example 23A, (R)-4-(4,4-diethyl-2-imino-6-oxotetrahydropyrimidin-1(2H)-yl)-N-((1R,2R)-2-hydroxy-2,3-dihydro-1H-inden-1-yl)spiro[chromane-2,3′-oxetane]-6-carboxamide]", "pEC50": 8.30}
{"smiles": "CCC1(CC)CC(=O)N([C@@H]2CCOc3ccc(C(=O)N[C@@H]4c5cc(F)ccc5OC(C)(C)[C@H]4O)cc32)C(=N)N1", "note": "[Example 25A, (R)-4-(4,4-diethyl-2-imino-6-oxotetrahydropyrimidin-1(2H)-yl)-N-((3S,4R)-6-fluoro-3-hydroxy-2,2-dimethylchroman-4-yl)chromane-6-carboxamide]", "pEC50": 9.30}
{"smiles": "CCC1(CC)CC(=O)N([C@@H]2CCOc3c(Cl)cc(C(=O)N[C@@H]4c5ccccc5OC(C)(C)[C@H]4O)cc32)C(=N)N1", "note": "[Example 29A, (R)-8-chloro-4-(4,4-diethyl-2-imino-6-oxotetrahydropyrimidin-1(2H)-yl)-N-((3S,4R)-3-hydroxy-2,2-dimethylchroman-4-yl)chromane-6-carboxamide]", "pEC50": 9.00}
{"smiles": "CCC1(CC)CC(=O)N([C@@H]2CCOc3ccc(C(=O)N[C@@H]4c5ccccc5OC(C)(C)[C@H]4O)nc32)C(=N)N1", "note": "[Example 30A, (R)-4-(4,4-diethyl-2-imino-6-oxotetrahydropyrimidin-1(2H)-yl)-N-((3S,4R)-3-hydroxy-2,2-dimethylchroman-4-yl)-3,4-dihydro-2H-pyrano[3,2-b]pyridine-6-carboxamide]", "pEC50": 9.10}
{"smiles": "CCC1(CC)CC(=O)N([C@@H]2CCOc3ccc(C(=O)N[C@H]4CC(C)(C)Oc5ccccc54)nc32)C(=N)N1", "note": "[Example 31B, (R)-4-(4,4-diethyl-2-imino-6-oxotetrahydropyrimidin-1(2H)-yl)-N-((S)-2,2-dimethylchroman-4-yl)-3,4-dihydro-2H-pyrano[3,2-b]pyridine-6-carboxamide]", "pEC50": 9.00}
{"test_system": "parasite", "assay": "Parasite LDH growth assay (Parasite Assay), antiparasite potency", "type": "cell-based", "conditions": "parasite LDH growth assay, ring stage parasites, 72 hours incubation at 37° C.; read-out: EC50", "protocol": "as §1, §2, §3"}
{"smiles": "CCC1(CC)CC(=O)N(C2c3cc(C(=O)N[C@@H]4c5ccccc5OC(C)(C)[C@H]4O)ccc3CC2OC)C(=N)N1", "note": "(single isomer, unassigned) [Example 251A]", "pEC50": 9.40}
{"smiles": "CCC1(CC)CC(=O)N([C@@H]2CCOc3ccc(C(=O)NC4c5ccccc5OCC4O)cc32)C(=N)N1", "note": "(stereo partly drawn) [Example 8A, (4R)-4-(4,4-diethyl-2-imino-6-oxotetrahydropyrimidin-1(2H)-yl)-N-(3-hydroxychroman-4-yl)chromane-6-carboxamide]", "pEC50": 8.00}
{"smiles": "CCC1C[C@@H](N2C(=N)NC(CC)(CC)CC2=O)c2cc(C(=O)N[C@@H]3c4ccccc4C[C@H]3O)ccc2O1", "note": "(stereo partly drawn) [Example 9A, (4R)-4-(4,4-diethyl-2-imino-6-oxotetrahydropyrimidin-1(2H)-yl)-2-ethyl-N-((1R,2R)-2-hydroxy-2,3-dihydro-1H-inden-1-yl)chromane-6-carboxamide]", "pEC50": 9.05}
{"smiles": "CCC1(CC)CC(=O)N([C@@H]2CC(COC)Oc3ccc(C(=O)N[C@H]4CC(C)(C)Oc5ccccc54)cc32)C(=N)N1", "note": "(stereo partly drawn) [Example 16A, (4R)-4-(4,4-diethyl-2-imino-6-oxotetrahydropyrimidin-1(2H)-yl)-N-((S)-2,2-dimethylchroman-4-yl)-2-(methoxymethyl)chromane-6-carboxamide]", "pEC50": 9.22}
{"smiles": "CCC1(CC)CC(=O)N([C@@H]2CC(C)(C)Oc3ccc(C(=O)N[C@@H]4c5ccccc5CC4(C)O)cc32)C(=N)N1", "note": "(stereo partly drawn) [Example 42A, (4R)-4-(4,4-diethyl-2-imino-6-oxotetrahydropyrimidin-1(2H)-yl)-N-((1R)-2-hydroxy-2-methyl-2,3-dihydro-1H-inden-1-yl)-2,2-dimethylchromane-6-carboxamide]", "pEC50": 9.00}
{"smiles": "CCC1(CC)CC(=O)N([C@@H]2CC(C)(C)Oc3ccc(C(=O)N[C@@H]4c5cc(F)ccc5OC(C)(C)[C@H]4O)cc32)C(=N)N1", "note": "[Example 53A, (R)-4-(4,4-diethyl-2-imino-6-oxotetrahydropyrimidin-1(2H)-yl)-N-((3S,4R)-6-fluoro-3-hydroxy-2,2-dimethylchroman-4-yl)-2,2-dimethylchromane-6-carboxamide]", "pEC50": 9.52}
{"smiles": "CCC1(CC)CC(=O)N([C@@H]2CCOc3ccc(C(=O)NC4c5ccccc5OC4(C)COC)cc32)C(=N)N1", "note": "(stereo partly drawn) [Example 64B, (4R)-4-(4,4-diethyl-2-imino-6-oxotetrahydropyrimidin-1(2H)-yl)-N-(2-(methoxymethyl)-2-methyl-2,3-dihydrobenzofuran-3-yl)chromane-6-carboxamide]", "pEC50": 9.05}
{"smiles": "CCC1(CC)CC(=O)N([C@H]2c3cc(C(=O)N[C@@H]4c5ccccc5OC(C)(C)[C@H]4O)ccc3OCC2OC)C(=N)N1", "note": "(stereo partly drawn) [Example 67B, (3R,4S)-4-(4,4-diethyl-2-imino-6-oxotetrahydropyrimidin-1(2H)-yl)-N-((3S,4R)-3-hydroxy-2,2-dimethylchroman-4-yl)-3-methoxychromane-6-carboxamide]", "pEC50": 9.10}
